Marks after values point to notes of the source that are not given here.
Tests used:
Hem-A mice [1] = test: Second fucoidan study, fucoidan +/- FVIII, survival of Hem-A mice after tail vein transection; type: in vivo; details: fucoidan 0.1 mg/kg s.c. twice daily 4.5 days, FVIII 1.25% reconstitution 2 hours prior
Method: In a second study with fucoidan, combination therapy potential with factor VIII was evaluated. This study was performed as described above, except on the morning of the fifth day, mice received an intravenous bolus dose of 53 mU/mouse FVIII (about 1.25% of the normal level of FVIII) in a tail vein far up near the body. As before, the lateral tail vein, and not the artery, was transected 2 hours later at the region corresponding to a diameter of about 2.7 mm. […] Survival and clinical observations were recorded for 20-24 hours.

Hem-A mice [2] = test: First fucoidan study, survival of Hem-A mice after bleeding test; type: in vivo; details: vehicle 1/6
Method: Given the improved potency and magnitude of efficacy of fucoidan relative to PPS in some of the clotting assays described above, additional studies were performed in Hem-A mice with fucoidan. In the first study with fucoidan, nearly the same regimen as described for PPS was adopted, but with slightly different dose levels. Hem-A male mice were administered fucoidan at a dose of 0.1 or 1.0 mg/kg or saline subcutaneously twice daily for 4 days. On the morning of the 5th day, mice received a doubled dose of fucoidan prior to the bleeding test. Survival and animal behavior were evaluated for mice treated with fucoidan compared to vehicle controls.
In the first study, treatment of mice with fucoidan at a dose of 0.1 mg/kg appeared to be more efficacious than treatment at a dose of 1.0 mg/kg (survival at about 10 hours was 1/6 for vehicle, 4/6 for 0.1 mg/kg, and 3/6 for 1.0 mg/kg).

rabbits = details: intravenously at 10 mg/kg; cited from earlier work
[3] = system: Hem-A plasma containing 1.25% FACT plasma; test: aPTT assay, NASPs in 1.25% FACT diluted in Hem-A plasma; type: biochemical, human; details: for concentration producing approximately 50% prolongation in clotting time, fold higher than for heparin: APTT, Hem-A plasma
Method: Activated Partial Thromboplastin Time (aPTT) Assay The aPTT assay was performed as described previously with modifications (PDR Staff Physicians' Desk Reference. 2004, Anderson Lo, Barrowcliffe, T. W., Holmer, E., Johnson, E. A., Sims, G. E. C. Thromb. Res. 1976; 9:575-580). 25 mM CaCl2 and fibrin cups (Fisher) were pre-warmed to 37° C. 0.1 ml of thawed human plasma (normal or hemophilic) was added to warmed test tubes. 5 μl of saline (e.g. Sigma) or 5 μl of test agent (e.g., NASP) dissolved in saline was incubated with 95 μl of plasma for 30 minutes at room temperature. APTT reagent (e.g. Organon Teknika) was reconstituted in 3 ml distilled water and 0.1 ml of the reconstituted solution containing the APTT reagent was added to each test tube. 0.2 ml of plasma containing the test agent or saline control and aPTT reagent were transferred from test tubes to pre-warmed fibrin cups and incubated for 2-3 minutes. 0.1 ml of pre-warmed 25 mM CaCl2 was added to initiate clotting, and the time for plasma clotting was measured with a BBL FIBROSYSTEM fibrometer.
The effect of NASPs on the clotting time of plasma was determined as follows: 5 μl of a NASP was added to 95 μl of 1.25% FACT diluted in human Hem-A plasma and incubated at room temperature for 30 minutes. aPTT assays were performed to determine plasma clotting time as described in Example 1.

Hem-B mice [4] = test: dPT clotting time of blood samples from Hem-B mice treated with PPS; type: in vivo; set-up: unit not given here
Method: The efficacy of PPS in improving clotting in Hem-B mice was further tested in dPT assays. All mice were bled prior to the study to establish baseline (pretest) clotting times. Mice (14 weeks old) were treated subcutaneously twice a day with PPS for 4.5 days at the following doses: 2, 0.3 and 0.06 mg/kg in a volume of 250 μl. Mice were bled after 4.5 days, and clotting times were determined from collected blood samples.

Hem-A mice [5] = test: Survival after tail clip, PPS-treated Hem-A mice; type: in vivo
Method: (§1) Hem-A mice (homozygous for the exon 16 FVIII KO allele) were licensed from John Hopkins University, and Hem-B mice (homozygous for the exon 1-3 FIX KO) were licensed from University of North Carolina at Chapel Hill. All animal procedures were performed according to “Guide for the Care and Use of Laboratory Animals” (National Research Council. Guide for the care and use of laboratory animals. Washington, D.C.: National Academy Press; 1996) and all procedures were reviewed and approved by an institutional animal care and use committee.
(§2) A. PPS Efficacy in Hem-A and Hem-B Mice The efficacy of PPS in improving clotting in Hem-A and Hem-B mice was tested. Hem-A and Hem-B male or female mice were administered PPS at a dose of 0.02, 0.06, or 0.2 mg/kg or saline vehicle subcutaneously twice daily for […]. On the morning of the fifth day after dosing, the tail was clipped 1 cm from the tip, and behavior and survival were monitored for the next 20-24 hours.

Hem-B mice [6] = test: Survival after tail clip, PPS-treated Hem-B mice; type: in vivo; details: 0.06 mg/kg s.c. twice daily 4.5 days, vehicle 25, p = 0.07
Method: as §1, §2

rats = details: subcutaneously; cited from earlier work

Substance: Fucoidan
- % Survival 9 hr (Hem-A mice [1]; 9 hr after tail vein incision, vehicle 21): 61 * %
- % Survival 20 hr (Hem-A mice [1]; 20 hr after tail vein incision, vehicle 7): 38 ^+ %
- survival at about 10 hours (Hem-A mice [2]; 0.1 mg/kg s.c. twice daily): 4/6
- survival at about 10 hours (Hem-A mice [2]; 1.0 mg/kg s.c. twice daily): 3/6
- tolerability (rabbits): well-tolerated
- clotting time, aPTT ([3]; 0.16 nM): 71 s
- clotting time, aPTT ([3]; 0.8 nM): 70 s
- clotting time, aPTT ([3]; 4 nM): 71 s
- clotting time, aPTT ([3]; 20 nM): 75 s
- clotting time, aPTT ([3]; 100 nM): 119 s
- concentration producing approximately 50% prolongation in clotting time, fold higher than for heparin [3]: 10 fold

Substance: Pentosan Polysulphate Sodium [PPS]
- Mean clotting time at 4.5 days (Hem-B mice [4]; 0.06 mg/kg s.c. twice a day): 37
- Mean clotting time at 4.5 days (Hem-B mice [4]; 0.3 mg/kg s.c. twice a day): 38
- Mean clotting time at 4.5 days (Hem-B mice [4]; 2.0 mg/kg s.c. twice a day): 44
- clotting time, aPTT ([3]; 0.8 nM): 70 s
- clotting time, aPTT ([3]; 4 nM): 71 s
- clotting time, aPTT ([3]; 20 nM): 72 s
- clotting time, aPTT ([3]; 100 nM): 80 s
- clotting time, aPTT ([3]; 500 nM): 113 s
- concentration producing approximately 50% prolongation in clotting time, fold higher than for heparin [3]: 100 fold
- % Survival (20 hours post-cut) (Hem-A mice [5]; 0.02 mg/kg s.c. twice daily 4.5 days, vehicle 25): 20 ^ %
- % Survival (20 hours post-cut) (Hem-A mice [5]; 0.06 mg/kg s.c. twice daily 4.5 days, vehicle 25, p = 0.07): 44 ^# %
- improvement in survival (Hem-A mice [5]; 0.06 mg/kg, not statistically significant (0.05<p<0.1)): nearly two-fold improvement in survival
- % Survival (20 hours post-cut) (Hem-A mice [5]; 0.2 mg/kg s.c. twice daily 4.5 days, vehicle 25): 40 ^ %
- % Survival (20 hours post-cut) (Hem-B mice [6]): 44 ^# %
- doses required to prolong clotting (rats): > 5 mg/kg

From patent US8771973B2, “Methods for treating bleeding disorders using sulfated polysaccharides” (Baxter Healthcare S.A., priority 2004, dated 2014)
